# What was measured:
# Assay type in all cases: toxicity, cell-based
# U2OS = experiment: Incucyte cell viability with U2OS; conditions: human, 10 µM, compound concentration 10 uM
# Fibroblast = experiment: Incucyte cell viability with human fibroblast; conditions: 10 µM, compound concentration 10 uM
# HEK-293T = experiment: Incucyte cell viability with HEK293T; conditions: human, 10 µM, compound concentration 10 uM
# Also: unitless GR value; below 1 slowed growth and below 0 cell loss.
SMILES,"Growth Rate (U2OS; 6 h, replicate number 2)","Growth Rate (U2OS; 12 h, replicate number 1)","Growth Rate (U2OS; 18 h, replicate number 1)","Growth Rate (U2OS; 18 h, replicate number 2)","Growth Rate (U2OS; 24 h, replicate number 1)","Growth Rate (U2OS; 24 h, replicate number 2)","Growth Rate (Fibroblast; 12 h, replicate number 1)","Growth Rate (Fibroblast; 12 h, replicate number 2)","Growth Rate (Fibroblast; 18 h, replicate number 1)","Growth Rate (Fibroblast; 18 h, replicate number 2)","Growth Rate (Fibroblast; 24 h, replicate number 1)","Growth Rate (Fibroblast; 24 h, replicate number 2)","Growth Rate (HEK-293T; 6 h, replicate number 1)","Growth Rate (HEK-293T; 6 h, replicate number 2)","Growth Rate (HEK-293T; 12 h, replicate number 1)","Growth Rate (HEK-293T; 12 h, replicate number 2)","Growth Rate (HEK-293T; 18 h, replicate number 1)","Growth Rate (HEK-293T; 18 h, replicate number 2)","Growth Rate (HEK-293T; 24 h, replicate number 1)","Growth Rate (HEK-293T; 24 h, replicate number 2)",other results
COc1cc(C(=O)NC2CCN(C)CC2)ccc1Nc1ncc2c(n1)N(C1CCCC1)CC(F)(F)C(=O)N2C,0.18,0.23,0.12,-0.08,0.2,-0.03,0.51,0.72,0.36,0.45,0.28,0.42,0.85,-0.29,0.86,-0.06,0.53,-0.2,0.26,-0.23,"Growth Rate (U2OS; 0 h, replicate number 1): -0.99; Growth Rate (U2OS; 0 h, replicate number 2): 0.71; Growth Rate (U2OS; 6 h, replicate number 1): 0.46; Growth Rate (U2OS; 12 h, replicate number 2): -0.13"
COc1ccccc1-c1cc(Nc2cccc(CS(N)(=O)=O)c2)ncn1,0.46,0.51,0.22,0.43,0.46,0.49,0.63,–,0.61,0.93,0.52,0.59,-0.26,-0.38,-0.07,-0.15,0.16,0.21,0.38,0.33,"Growth Rate (U2OS; 6 h, replicate number 1): 0.81; Growth Rate (U2OS; 12 h, replicate number 2): 0.46; Growth Rate (Fibroblast; 0 h, replicate number 2): -0.71; Growth Rate (Fibroblast; 6 h, replicate number 1): 0.43"
Cc1cc(-c2cnc(N)c3c(-c4ccc5scnc5c4)csc23)n(C)n1,0.91,0.94,0.91,–,–,–,0.42,0.67,0.91,0.9,–,0.92,-0.34,–,-0.15,–,0.02,–,0.06,–,"Growth Rate (U2OS; 0 h, replicate number 1): -0.98; Growth Rate (U2OS; 0 h, replicate number 2): -0.85; Growth Rate (U2OS; 12 h, replicate number 2): -0.33; Growth Rate (Fibroblast; 0 h, replicate number 1): -1; Growth Rate (Fibroblast; 6 h, replicate number 1): 0.88; Growth Rate (Fibroblast; 6 h, replicate number 2): 0.31"
CCN(C)S(=O)(=O)Nc1cccc(-c2ccc3c(NC(=O)C4CC4)n[nH]c3c2)c1,-0.06,-0.32,-0.12,0.1,0.11,0.17,-0.17,-0.25,-0.01,-0.16,0.13,-0.03,-0.21,-0.69,-0.1,-0.46,-0.03,-0.33,0,-0.21,"Growth Rate (U2OS; 0 h, replicate number 2): -0.42; Growth Rate (U2OS; 6 h, replicate number 1): -0.66; Growth Rate (U2OS; 12 h, replicate number 2): 0.08; Growth Rate (Fibroblast; 6 h, replicate number 1): -0.58; Growth Rate (Fibroblast; 6 h, replicate number 2): -0.37"
CN(C)C/C=C/C(=O)Nc1cccc(S(=O)(=O)N2CCC(NC(=O)c3n[nH]cc3NC(=O)c3c(Cl)cc(Cl)cc3Cl)CC2)c1,0.35,0.1,-0.42,-0.38,-0.51,-0.42,0.8,0.45,0.26,0.09,0.12,-0.13,-0.58,-0.85,-0.49,-0.7,-0.34,-0.61,-0.05,-0.34,"Growth Rate (U2OS; 12 h, replicate number 2): -0.3; Growth Rate (Fibroblast; 6 h, replicate number 2): 0.98"
CC(C)(C)c1cnc(CSc2cnc(NC(=O)C3CCN(CC(=O)NCCOCCOCCOCCNc4cccc5c4C(=O)N(C4CCC(=O)NC4=O)C5=O)CC3)s2)o1 (centres undefined),0.25,0.31,0.16,-0.02,-0.05,-0.04,-0.04,-0.09,-0.02,-0.15,0.11,-0.12,-0.56,-0.74,-0.47,-0.62,-0.38,-0.5,-0.29,-0.39,"Growth Rate (U2OS; 0 h, replicate number 2): 0.98; Growth Rate (U2OS; 6 h, replicate number 1): 0.29; Growth Rate (U2OS; 12 h, replicate number 2): 0.19; Growth Rate (Fibroblast; 0 h, replicate number 1): -0.99; Growth Rate (Fibroblast; 6 h, replicate number 1): 0.1; Growth Rate (Fibroblast; 6 h, replicate number 2): 0.11"
COc1cc(N2CCN(C)CC2)ccc1Nc1ncc2c(n1)N(C)c1ccccc1C(=O)N2CC(F)(F)F,0.9,0.97,0.99,0.87,–,0.83,0.43,0.51,0.09,0.31,-0.1,0.08,-0.03,0,0.26,0.22,0.22,0.29,0.27,0.36,"Growth Rate (Fibroblast; 6 h, replicate number 1): 0.44; Growth Rate (Fibroblast; 6 h, replicate number 2): 0.47"
CC(C)c1cnn2c(NCc3ccccc3)cc(NCCCCCCN)nc12.Cl,0.69,0.99,0.92,0.76,0.87,0.71,0.36,0.65,0.9,0.69,1,0.87,-0.19,-0.03,0.25,0.46,0.64,0.6,0.65,0.66,"Growth Rate (U2OS; 0 h, replicate number 2): 0.64; Growth Rate (U2OS; 12 h, replicate number 2): 0.78; Growth Rate (Fibroblast; 0 h, replicate number 2): -0.08; Growth Rate (Fibroblast; 6 h, replicate number 1): 0.36; Growth Rate (Fibroblast; 6 h, replicate number 2): 0.27"
COc1cc(-c2cncc(-c3cnn(C4CCNCC4)c3)c2)cc(OC)c1OC,0.55,–,–,0.99,–,0.94,–,0.97,–,–,0.86,0.9,0.84,0.78,–,0.82,–,0.73,–,0.77,"Growth Rate (U2OS; 0 h, replicate number 1): -1; Growth Rate (Fibroblast; 0 h, replicate number 1): 0.47; Growth Rate (Fibroblast; 6 h, replicate number 2): 0.74"
CC(C)C(=O)N[C@@H]1CCN(C(=O)Nc2nc3c(s2)-c2nc(-c4ccccc4Cl)ncc2CC3)C1,–,0.94,0.91,0.77,0.88,0.69,–,–,–,–,–,–,0.21,-0.05,0.16,-0.08,0.29,0.03,0.37,0.15,"Growth Rate (U2OS; 12 h, replicate number 2): 0.9; Growth Rate (Fibroblast; 0 h, replicate number 1): -0.95"
CC(=O)c1c(C)c2cnc(Nc3ccc(N4CCN(CCCCNC(=O)COc5cccc6c5C(=O)N(C5CCC(=O)NC5=O)C6=O)CC4)cn3)nc2n(C2CCCC2)c1=O (centres undefined),0.97,0.99,–,–,1,–,–,–,–,–,0.88,–,0.75,–,0.82,0.85,0.85,0.98,0.91,–,"Growth Rate (U2OS; 0 h, replicate number 2): 0.65; Growth Rate (Fibroblast; 0 h, replicate number 2): 0.14; Growth Rate (Fibroblast; 6 h, replicate number 1): 0.72"
CCCNc1ccc2ncc(-c3ccncc3)n2n1,–,0.48,0.14,0.66,0.15,0.45,0.2,0.09,0.11,0.04,0.13,0.09,-0.19,-0.3,-0.26,-0.13,-0.11,–,0.02,-0.01,"Growth Rate (U2OS; 0 h, replicate number 1): -1; Growth Rate (U2OS; 6 h, replicate number 1): 0.96; Growth Rate (Fibroblast; 0 h, replicate number 2): 0.59; Growth Rate (Fibroblast; 6 h, replicate number 1): 0.14; Growth Rate (Fibroblast; 6 h, replicate number 2): 0.27"

# Source: ChEMBL document CHEMBL5303304, “EUbOPEN Chemogenomics Library - IncuCyte” (2023)
